Reference: PubChem BioAssay AID1918932 (Molecular Pharmacology Branch, DTP, NCI, 2023)
“And” between values parts separate entries of the source, which are not always exact repeats. Equal entries are not always repeated.

System: 171881-019-R-J1-PDC complex spheroid viability
Assay: Anticancer human tumor 171881-019-R-J1-PDC patient-derived invasive breast carcinoma cell line growth inhibition
Details: for viability, T/C: stronger effect = lower value
How it was run: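 Multicellular complex spheroids of tumor cells with human endothelial cells (HUVEC) and mesenchymal stem cells; the LSD1 inhibitor iadademstat was combined with standard-of-care or investigational agents. Top concentration at or near clinical Cmax, half-log dilutions; final DMSO ≤0.25%.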

[1] = curve of first compound, second compound 0.1 µM
[2] = curve of first compound, second compound 0.316 µM
[3] = curve of first compound, second compound 1 µM
[4] = curve of first compound, second compound 3.16 µM
[5] = curve of first compound, second compound 10 µM
[6] = second compound 0.1 µM, first compound 0.0316 µM
[7] = second compound 0.1 µM, first compound 0.1 µM
[8] = second compound 0.316 µM, first compound 0.0316 µM
[9] = second compound 0.316 µM, first compound 0.1 µM
[10] = second compound 1 µM, first compound 0.0316 µM
[11] = second compound 1 µM, first compound 0.1 µM
[12] = second compound 3.16 µM, first compound 0.0316 µM
[13] = second compound 3.16 µM, first compound 0.1 µM
[14] = second compound 10 µM, first compound 0.0316 µM
[15] = second compound 10 µM, first compound 0.1 µM
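Also: spheroids exposed to agents for 7 days after 3 days growth.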

Work on `CCN(c1cc(-c2ccc(CN3CCOCC3)cc2)cc(C(=O)NCc2c(C)cc(C)[nH]c2=O)c1C)C1CCOCC1` + NC1CCC(NC2CC2c2ccccc2)CC1 yielded an IC50 [1] of 2.67 µM, an IC50 [2] of 2.85 µM and an IC50 [3] of 2.68 µM. The IC50 [4] was 2.73 µM, the IC50 [5] was 2.88 µM and the viability, T/C (second compound 0.1 µM, first compound 0.00949 µM) was 76.3%. For the same compound, the viability, T/C (second compound 0.1 µM, first compound 0.03 µM) was 85%, the viability, T/C (second compound 0.1 µM, first compound 0.0949 µM) was 81.3% and the viability, T/C (second compound 0.1 µM, first compound 0.3 µM) was 101%. It also gave a viability, T/C (second compound 0.1 µM, first compound 0.949 µM) of 74.1%, a viability, T/C (second compound 0.1 µM, first compound 3 µM) of 47.3% and a viability, T/C (second compound 0.316 µM, first compound 0.00949 µM) of 84.7%. The viability, T/C (second compound 0.316 µM, first compound 0.03 µM) was 78.2%, the viability, T/C (second compound 0.316 µM, first compound 0.0949 µM) was 72.6% and the viability, T/C (second compound 0.316 µM, first compound 0.3 µM) was 94.3%. For the same compound, the viability, T/C (second compound 0.316 µM, first compound 0.949 µM) was 76.6%, the viability, T/C (second compound 0.316 µM, first compound 3 µM) was 48.8% and the viability, T/C (second compound 1 µM, first compound 0.00949 µM) was 69.2%. It also gave a viability, T/C (second compound 1 µM, first compound 0.03 µM) of 77.3%, a viability, T/C (second compound 1 µM, first compound 0.0949 µM) of 73.6% and a viability, T/C (second compound 1 µM, first compound 0.3 µM) of 88.7%. It also gave a viability, T/C (second compound 1 µM, first compound 0.949 µM) of 79.9%, a viability, T/C (second compound 1 µM, first compound 3 µM) of 47% and a viability, T/C (second compound 3.16 µM, first compound 0.00949 µM) of 80.6%. The viability, T/C (second compound 3.16 µM, first compound 0.03 µM) was 81.7%, the viability, T/C (second compound 3.16 µM, first compound 0.0949 µM) was 84.9% and the viability, T/C (second compound 3.16 µM, first compound 0.3 µM) was 81.8%. The viability, T/C (second compound 3.16 µM, first compound 0.949 µM) was 70.3%, the viability, T/C (second compound 3.16 µM, first compound 3 µM) was 48.3% and the viability, T/C (second compound 10 µM, first compound 0.00949 µM) was 80.4%. The viability, T/C (second compound 10 µM, first compound 0.03 µM) was 75.1%, the viability, T/C (second compound 10 µM, first compound 0.0949 µM) was 76.5% and the viability, T/C (second compound 10 µM, first compound 0.3 µM) was 90.7%. For the same compound, the viability, T/C (second compound 10 µM, first compound 0.949 µM) was 77.9% and the viability, T/C (second compound 10 µM, first compound 3 µM) was 49%.
For `CC[C@@]1(O)C(=O)OCc2c1cc1n(c2=O)Cc2cc3c(CN(C)C)c(O)ccc3nc2-1`, the viability, T/C (compound 0.000316 µM) was 90.9% and 99.1%, the viability, T/C (compound 0.001 µM) was 116% and 105% and the viability, T/C (compound 0.00316 µM) was 129% and 84.4%. For the same compound, the viability, T/C (compound 0.01 µM) was 64.3% and 70.4%, the viability, T/C (compound 0.0316 µM) was 67.5% and 66% and the viability, T/C (compound 0.1 µM) was 46.6% and 37.6%. For the same compound, the IC50 (curve of compound) was > 0.1 µM and 0.0552 µM.
`CC[C@@]1(O)C(=O)OCc2c1cc1n(c2=O)Cc2cc3c(CN(C)C)c(O)ccc3nc2-1` + NC1CCC(NC2CC2c2ccccc2)CC1 was tested, and the IC50 [1] was > 0.1 µM, the IC50 [2] was > 0.1 µM and the IC50 [3] was > 0.1 µM. For the same compound, the IC50 [4] was > 0.1 µM, the IC50 [5] was > 0.1 µM and the viability, T/C (second compound 0.1 µM, first compound 0.000316 µM) was 83.9%. It also gave a viability, T/C (second compound 0.1 µM, first compound 0.001 µM) of 91.8%, a viability, T/C (second compound 0.1 µM, first compound 0.00316 µM) of 122% and a viability, T/C (second compound 0.1 µM, first compound 0.01 µM) of 74.7%. For the same compound, the viability, T/C [6] was 69.5%, the viability, T/C [7] was 50.6% and the viability, T/C (second compound 0.316 µM, first compound 0.000316 µM) was 80.2%. It also gave a viability, T/C (second compound 0.316 µM, first compound 0.001 µM) of 86.1%, a viability, T/C (second compound 0.316 µM, first compound 0.00316 µM) of 125% and a viability, T/C (second compound 0.316 µM, first compound 0.01 µM) of 71.1%. It also gave a viability, T/C [8] of 67.3%, a viability, T/C [9] of 56.5% and a viability, T/C (second compound 1 µM, first compound 0.000316 µM) of 87.5%. The viability, T/C (second compound 1 µM, first compound 0.001 µM) was 89.4%, the viability, T/C (second compound 1 µM, first compound 0.00316 µM) was 128% and the viability, T/C (second compound 1 µM, first compound 0.01 µM) was 77.6%. The viability, T/C [10] was 72.4%, the viability, T/C [11] was 59% and the viability, T/C (second compound 3.16 µM, first compound 0.000316 µM) was 95.2%. It also gave a viability, T/C (second compound 3.16 µM, first compound 0.001 µM) of 94.5%, a viability, T/C (second compound 3.16 µM, first compound 0.00316 µM) of 138% and a viability, T/C (second compound 3.16 µM, first compound 0.01 µM) of 83.1%. It also gave a viability, T/C [12] of 75.8%, a viability, T/C [13] of 62.3% and a viability, T/C (second compound 10 µM, first compound 0.000316 µM) of 88%. The viability, T/C (second compound 10 µM, first compound 0.001 µM) was 93.7%, the viability, T/C (second compound 10 µM, first compound 0.00316 µM) was 133% and the viability, T/C (second compound 10 µM, first compound 0.01 µM) was 92.7%. For the same compound, the viability, T/C [14] was 90.7% and the viability, T/C [15] was 76.4%.
With `CC(C)c1c(-c2ccccc2)nc2c(C#N)c[nH]n2c1=O` + NC1CCC(NC2CC2c2ccccc2)CC1 the IC50 [1] was > 10 µM, the IC50 [2] was > 10 µM and the IC50 [3] was > 10 µM. For the same compound, the IC50 [4] was > 10 µM, the IC50 [5] was > 10 µM and the viability, T/C [6] was 89.7%. The viability, T/C [7] was 75.8%, the viability, T/C (second compound 0.1 µM, first compound 0.316 µM) was 82.7% and the viability, T/C (second compound 0.1 µM, first compound 1 µM) was 92.2%. The viability, T/C (second compound 0.1 µM, first compound 3.16 µM) was 82.9%, the viability, T/C (second compound 0.1 µM, first compound 10 µM) was 97.8% and the viability, T/C [8] was 90.7%. It also gave a viability, T/C [9] of 93.3%, a viability, T/C (second compound 0.316 µM, first compound 0.316 µM) of 82.6% and a viability, T/C (second compound 0.316 µM, first compound 1 µM) of 96.1%. It also gave a viability, T/C (second compound 0.316 µM, first compound 3.16 µM) of 94%, a viability, T/C (second compound 0.316 µM, first compound 10 µM) of 91.6% and a viability, T/C [10] of 93.8%. For the same compound, the viability, T/C [11] was 81.3%, the viability, T/C (second compound 1 µM, first compound 0.316 µM) was 85.5% and the viability, T/C (second compound 1 µM, first compound 1 µM) was 100%. The viability, T/C (second compound 1 µM, first compound 3.16 µM) was 81.5%, the viability, T/C (second compound 1 µM, first compound 10 µM) was 91.2% and the viability, T/C [12] was 96.1%. For the same compound, the viability, T/C [13] was 90.5%, the viability, T/C (second compound 3.16 µM, first compound 0.316 µM) was 94.3% and the viability, T/C (second compound 3.16 µM, first compound 1 µM) was 80.3%. It also gave a viability, T/C (second compound 3.16 µM, first compound 3.16 µM) of 101%, a viability, T/C (second compound 3.16 µM, first compound 10 µM) of 97.3% and a viability, T/C [14] of 87.2%. The viability, T/C [15] was 90.4%, the viability, T/C (second compound 10 µM, first compound 0.316 µM) was 77.3% and the viability, T/C (second compound 10 µM, first compound 1 µM) was 92.6%. For the same compound, the viability, T/C (second compound 10 µM, first compound 3.16 µM) was 93.4% and the viability, T/C (second compound 10 µM, first compound 10 µM) was 90.4%.
